Two compounds from patent US4818770A, “Prevention of a plant disease by specific inhibition of fungal polyamine biosynthesis” (priority 1986, dated 1989) can be followed below.

This assay has as its system U. phaseoli. The assay is described as follows: Bean rust severity after DFMO and polyamines alone or combined. The format is in vivo, Uromyces phaseoli. Particulars: for Lesions per cm^2 / Lesions per leaf / Lesions per leaf, percent of control: postinoculation.

In the case of `NCCCCN` [Put, putrescine], under “1 mM Put alone”, the “reduction of number of lesions” value is “about one-third”. Also, where the note is “polyamine alone 0.01 mM”, the “Lesions per cm^2” value was 57 ± 2 per cm^2; the Lesions per leaf is given as 4013 ± 264 per leaf; the “Lesions per leaf, percent of control” value is recorded as 98% of control. Also, for the setting “polyamine alone 0.1 mM”, the “Lesions per cm^2” value is 54 ± 5 per cm^2; the Lesions per leaf amounted to 3189 ± 478 per leaf; the “Lesions per leaf, percent of control” value was 78% of control. In addition, for the setting “polyamine alone 1.0 mM”, the “Lesions per cm^2” value is recorded as 44 ± 9 per cm^2; the Lesions per leaf was 2698 ± 260 per leaf; the “Lesions per leaf, percent of control” value is 66% of control.
In the case of `NCCCCNCCCN` [Spd, spermidine], the “Lesions per cm^2” value is 56 ± 5 per cm^2 (polyamine alone 0.01 mM), 58 ± 6 per cm^2 (polyamine alone 0.1 mM) and 50 ± 10 per cm^2 (polyamine alone 1.0 mM). Besides, the Lesions per leaf was found to be 3209 ± 360 per leaf (polyamine alone 0.01 mM), 3416 ± 457 per leaf (polyamine alone 0.1 mM) and 3926 ± 358 per leaf (polyamine alone 1.0 mM). The “Lesions per leaf, percent of control” value reads like this: (polyamine alone 0.01 mM) 78% of control; (polyamine alone 0.1 mM) 83% of control; (polyamine alone 1.0 mM) 96% of control.
